The text below walks through data of ChEMBL document CHEMBL5113518, “Discovery of a Novel G-Quadruplex and Histone Deacetylase (HDAC) Dual-Targeting Agent for the Treatment of Triple-Negative Breast Cancer” (J Med Chem, 2022).

In assay [1] the target is Histone deacetylase. Nature of the assay: Inhibition of HDAC in human HeLa nuclear extract incubated for 30 mins by fluorescence-based Glo-luminescence assay. It counts as cell-based.
Assay [2] has as its target Quadruplex DNA. Briefly: Binding affinity to 5' FAM-labeled c-myc G4-quadruplex DNA Pu22 (unknown origin) by fluorescence quench assay. The assay is classed as nucleic-acid assay.
In assay [3] the test system is Quadruplex DNA. As to conditions: dose 1.0 µM.
Description: Binding affinity to 5' FAM and 3' TAMRA-labeled c-myc G4-quadruplex DNA Pu22 (unknown origin) assessed as change in melting temperature at 1 uM by fluorescence resonance energy transfer assay
Assay [4] concerns the target Quadruplex DNA. Nature of the assay: Binding affinity to 5' FAM-labeled c-myc G4-quadruplex DNA Pu22 (unknown origin) assessed as dissociation constant by surface plasmon resonance assay. The assay is classed as nucleic-acid assay.
The target of assay [5] is Quadruplex DNA. Nature of the assay: Binding affinity to 5' FAM-labeled […] (unknown origin) assessed as dissociation constant by surface plasmon resonance assay. The assay is classed as nucleic-acid assay.
The target in assay [6] is Quadruplex DNA. Nature of the assay: Binding affinity to 5' FAM-labeled c-myc G4-quadruplex DNA HTG21 (unknown origin) assessed as dissociation constant by surface plasmon resonance assay. The assay is classed as nucleic-acid assay.
The test system of assay [7] is Quadruplex DNA. Briefly: Binding affinity to 5' FAM and 3' TAMRA-labeled […] (unknown origin) assessed as change in melting temperature by fluorescence resonance energy transfer assay. The assay is classed as nucleic-acid assay.
The subject of assay [8] is Quadruplex DNA. Nature of the assay: Binding affinity to 5' FAM and 3' TAMRA-labeled c-myc G4-quadruplex DNA HTG21 (unknown origin) assessed as change in melting temperature by fluorescence resonance energy transfer assay. The assay is classed as nucleic-acid assay.
Assay [9] concerns Quadruplex DNA. Briefly: Binding affinity to 5' FAM and 3' TAMRA-labeled c-myc G4-quadruplex DNA duplex (unknown origin) assessed as change in melting temperature by fluorescence resonance energy transfer assay. The assay is classed as nucleic-acid assay.
Assay [10] in a line: Stabilization of DNA Pu22 (unknown origin ) single strand assessed as G4-quadruplex formation up to 30 uM in presence of potassium ions by spectrum based circular dichroism analysis. Background: CD spectra are sensitive to the conformation of chiral molecules.
The nature of assay [11]: Stabilization of DNA Pu22 (unknown origin ) single strand assessed as G4-quadruplex formation in absence of potassium ions by spectrum based circular dichroism analysis. Particulars: dose <= 30.0 µM; DDE = dose-dependent effect.
The target in assay [12] is Histone deacetylase. Nature of the assay: Inhibition of HDAC in human MDA-MB-231 cells incubated for 45 mins by luminescence assay. The assay is classed as cell-based.
Assay [13] deals with MDA-MB-231. Nature of the assay: Cytotoxicity against human MDA-MB-231 cells harboring wild type BRCA1 and wild BRCA2 assessed as reduction in cell viability. The assay is classed as functional, cell-based.
In a further assay the test system is MDA-MB-468. Briefly: Cytotoxicity against human MDA-MB-468 cells harboring wild type BRCA1 and BRCA2 mutant reduction in assessed as cell viability. It counts as functional, cell-based.
In a further assay the test system is SUM-159-PT. Nature of the assay: Cytotoxicity against human SUM159PT cells harboring wild type BRCA1 and wild type BRCA2 assessed as reduction in cell viability. It counts as functional, cell-based.
The test system of the next assay is BT-549. Briefly: Cytotoxicity against human BT-549 cells harboring wild type BRCA1 and wild type BRCA2 assessed as reduction in cell viability. It counts as functional, cell-based.
The subject of assay [14] is MDA-MB-231. Briefly: Antitumor activity against human MDA-MB-231 cells xenografted in BALB/c-nu/nu mouse assessed as increment ratio at 10 mg/kg, ip measured for 31 days. It counts as functional. As to conditions: time 31 day.
Assay [15] has as its system MDA-MB-231. Nature of the assay: Antitumor activity against human MDA-MB-231 cells xenografted in BALB/c-nu/nu mouse assessed as tumor growth inhibition at 10 mg/kg, ip measured for 31 days. As to conditions: MDA-MB-231, 744 h, time 31 day, read-out: TGI. The assay is classed as functional. (A xenograft is tissue or cells of one species grown in another, often human tumour cells in immunodeficient mice.)

For orientation: IC50 means the concentration that inhibits the measured activity by half. One may read the ΔTm as the change in melting temperature against a reference sample. A word on the pKd: it is the Kd on a negative log10 scale, so that one unit is a factor of ten. The term pIC50 denotes the IC50 on a negative log10 scale, so that one unit is a factor of ten. In general, T/C refers to the ratio of treated to control.

pIC50, pKd: −log10 of the molar value. Calls of active or inactive are those of the source. The rule behind the calls is not given here.

Regarding `CN(C)CCCNc1cc2nc3n(c(=O)c2cc1F)CC/C3=C\c1ccc(C(=O)Nc2ccccc2N)cc1`, the IC50 against Histone deacetylase [1] stood at 5800 nM. Further, on Quadruplex DNA [2], the DC50 is 200 nM. Moreover, the ΔTm with Quadruplex DNA [3] was 2.3 °C.

`CN(C)CCCNC(=O)c1ccc(/C=C2\CCn3c2nc2cc(N4CCN(Cc5ccc(/C=C/C(=O)Nc6ccccc6N)cc5)CC4)c(F)cc2c3=O)cc1` gave a concentration for half-maximal inhibition (IC50) at Histone deacetylase [1] of 8100 nM. This molecule displayed a DC50 on Quadruplex DNA [2] of 300 nM. The thermal shift (ΔTm) in the assay with Quadruplex DNA [3] was found to be 0.7 °C.

On Histone deacetylase [1], `CN(C)CCCNC(=O)c1ccc(/C=C2\CCn3c2nc2cc(N4CCN(CCCCCC(=O)NO)CC4)c(F)cc2c3=O)cc1.Cl` showed an IC50 of 1600 nM. The same molecule returned a DC50 on Quadruplex DNA [2] of 900 nM. Also, the ΔTm in the assay on Quadruplex DNA [3] was 17.3 °C.

At Histone deacetylase [1], `Nc1ccccc1NC(=O)c1ccc(/C=C2\CCn3c2nc2cc(NCCCN4CCCC4)c(F)cc2c3=O)cc1` had an IC50 of 8600 nM. Besides, the DC50 on Quadruplex DNA [2] came to 600 nM. The ΔTm with Quadruplex DNA [3] came out at 0.6 °C.

As for `CN(C)CCCNC(=O)c1ccc(/C=C2\CCn3c2nc2cc(N4CCN(CCCCCCC(=O)NO)CC4)c(F)cc2c3=O)cc1.Cl`, on Histone deacetylase [1], the IC50 is 2100 nM. The DC50 on Quadruplex DNA [2] amounted to 1700 nM. The ΔTm with Quadruplex DNA [3] was determined as 15.9 °C.

At Histone deacetylase [1], `CN(C)CCCNC(=O)c1ccc(/C=C2\CCn3c2nc2cc(N4CCN(Cc5ccc(/C=C/C(=O)NO)cc5)CC4)c(F)cc2c3=O)cc1.Cl` came in with an IC50 of 1900 nM. On Quadruplex DNA [2], this molecule registered a DC50 of 200 nM. Moreover, in the assay with Quadruplex DNA [3], the ΔTm came to 1.8 °C.

At Histone deacetylase [1], `Cl.O=C(CCCCCCNC(=O)c1ccc(/C=C2\CCn3c2nc2cc(NCCCN4CCCC4)c(F)cc2c3=O)cc1)NO` yielded an IC50 of 50 nM. The molecule also gave a DC50 on Quadruplex DNA [2] of 3000 nM. Further, the ΔTm in the assay with Quadruplex DNA [3] was determined as 3.2 °C.

`CCN(CC)CCCNC(=O)c1ccc(/C=C2\CCn3c2nc2cc(NCCCN4CCCC4)c(F)cc2c3=O)cc1` returned a DC50 at Quadruplex DNA [2] of 1400 nM. The pKd is 5.74 on Quadruplex DNA [4], 5.44 at Quadruplex DNA [5] and below 5.00 on Quadruplex DNA [6]. Further, the ΔTm with Quadruplex DNA [7] is 6.4 °C; in the assay on Quadruplex DNA [8], 7.3 °C; with Quadruplex DNA [9], 1.8 °C; in the assay on Quadruplex DNA [3] it was 17.4 °C. Further, the outcome in assay [10] was Active. Also, the Activity entry in assay [11] was “Dde”. Further, the IC50 on Histone deacetylase [12] was above 10000 nM. Besides, the pIC50 is 4.97 with MDA-MB-231 [13], 4.33 in the assay on MDA-MB-468, 4.33 in the assay on SUM-159-PT and 4.84 with BT-549. The T/C in the assay with MDA-MB-231 [14] is 69.7%. Further, in the assay with MDA-MB-231 [15], the inhibition in vivo at 10 mg/kg is 48.2%.

For `CN(C)CCCNC(=O)c1ccc(/C=C2\CCn3c2nc2ccc(OCCCCCCC(=O)NO)cc2c3=O)cc1.Cl`, the IC50 against Histone deacetylase [1] stood at 60 nM. This molecule also gave a DC50 at Quadruplex DNA [2] of 900 nM. The ΔTm in the assay on Quadruplex DNA [3] came to 4.4 °C.

The molecule `CN(C)CCCNC(=O)c1ccc(/C=C2\CCn3c2nc2cc(NCCCCCCC(=O)NO)c(F)cc2c3=O)cc1.Cl` registered an IC50 against Histone deacetylase [1] of 70 nM. For the same molecule, the DC50 at Quadruplex DNA [2] stood at 300 nM. In addition, the thermal shift (ΔTm) with Quadruplex DNA [3] stood at 7.2 °C.

`CN1CCN(c2cc3nc4n(c(=O)c3cc2F)CC/C4=C\c2ccc(C(=O)Nc3ccccc3N)cc2)CC1`: the DC50 on Quadruplex DNA [2] was found to be 200 nM. Moreover, the ΔTm with Quadruplex DNA [3] worked out at 0.3 °C.

On to `CN1CCN(c2cc3nc4n(c(=O)c3cc2F)CC/C4=C\c2ccc(C(=O)NO)cc2)CC1`, for which, on Quadruplex DNA [2], the DC50 is 2900 nM. Further, in the assay on Quadruplex DNA [3], the ΔTm was determined as 5.7 °C.

For `CN(C)CCCNC(=O)c1ccc(/C=C2\CCn3c2nc2cc(N4CCN(CCCCC(=O)NO)CC4)c(F)cc2c3=O)cc1.Cl`, at Histone deacetylase [1], the IC50 turned out to be 1500 nM. Besides, the DC50 at Quadruplex DNA [2] amounted to 800 nM. Further, the ΔTm in the assay on Quadruplex DNA [3] came to 16.7 °C.

As for `O=C(CCCCCCC(=O)Nc1ccccc1)NO` [VORINOSTAT], the pIC50 in the assay with MDA-MB-468 and in the assay on BT-549 was 5.64 throughout. For the same molecule, the T/C with MDA-MB-231 [14] was found to be 39.3%.

On Quadruplex DNA [2], `CN(C)CCCNC(=O)c1ccc(/C=C2\CCn3c2nc2cc(N4CCN(CCCCCCCC(=O)Nc5ccccc5N)CC4)c(F)cc2c3=O)cc1` came in with a DC50 of 1200 nM. Also, the ΔTm with Quadruplex DNA [3] stood at 8.2 °C.

For `CN(C)CCCNC(=O)c1ccc(/C=C2\CCn3c2nc2cc(N4CCN(CCCC(=O)NO)CC4)c(F)cc2c3=O)cc1`, the DC50 on Quadruplex DNA [2] was 1300 nM. In addition, the ΔTm with Quadruplex DNA [3] came out at 16.4 °C.

For `Nc1ccccc1NC(=O)c1ccc(CNC(=O)OCc2cccnc2)cc1`, the ΔTm with Quadruplex DNA [3] is 0.1 °C.

Molecule `CN(C)CCCNC(=O)c1ccc(/C=C2\CCn3c2nc2cc(N4CCN(Cc5ccc(C(=O)NO)cc5)CC4)c(F)cc2c3=O)cc1.Cl` registered an IC50 against Histone deacetylase [1] of 2500 nM. Also, the DC50 on Quadruplex DNA [2] is 200 nM. Besides, the ΔTm in the assay with Quadruplex DNA [3] is 4.3 °C.
